Experimental data from ChEMBL document CHEMBL1201862, “PubChem BioAssay data set” (2004).
Calls of active or inactive are those of the source.

Experiments:
[1] = HEK293T cytotoxicity, dose response, cytotoxicity control for miR-122 modulator project, cell-based, inhibitor set, cherry-pick, set 2 (AID 720697); format: functional
[2] = NIH:OVCAR-3 ovarian cancer cell cytotoxicity, dose response, PAX8 inhibitor project, plate reader, dry powder samples (AID 743044); format: functional, cell-based
Paired box protein Pax-8 = Paired box protein Pax-8 (Homo sapiens, UniProt Q06710); assay: inhibitors of PAX8-driven TPO luciferase reporter, dose response, RMG-I cells, cherry-pick (AID 687027); format: functional, cell-based;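 note: luciferase reporter driven by Pax8 target thyroperoxidase promoter measured by SteadyGlo luminescence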
Paired box protein Pax-8, sequence (Q06710 whole entry): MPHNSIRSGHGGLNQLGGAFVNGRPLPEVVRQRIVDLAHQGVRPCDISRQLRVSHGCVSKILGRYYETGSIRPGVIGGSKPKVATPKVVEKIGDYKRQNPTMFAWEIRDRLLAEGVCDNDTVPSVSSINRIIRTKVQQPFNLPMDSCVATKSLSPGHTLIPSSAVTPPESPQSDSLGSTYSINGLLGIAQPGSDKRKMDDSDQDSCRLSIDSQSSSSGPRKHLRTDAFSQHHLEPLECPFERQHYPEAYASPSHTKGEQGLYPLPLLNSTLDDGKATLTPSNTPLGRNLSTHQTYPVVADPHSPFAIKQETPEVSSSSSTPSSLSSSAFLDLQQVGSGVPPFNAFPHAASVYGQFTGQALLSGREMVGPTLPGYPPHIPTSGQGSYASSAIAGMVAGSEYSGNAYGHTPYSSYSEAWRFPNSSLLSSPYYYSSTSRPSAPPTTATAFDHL

[3] = cytotoxicity in OVCAR8 ovarian cancer cells, dose response, PAX8 project, cell-based, plate reader, dry powder samples (AID 743197); format: functional; settings: OVCAR-8
[4] = intracellular Trypanosoma cruzi inhibitors in host cells – cell-based, plate reader, cherry-pick samples, set 3, dose response (AID 651818); format: functional;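 note: compounds incubated with infected cells for about four days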
[5] = growth suppression of PTEN-null colon cells, dose response, cell-based, HCT116 PTEN knockout (AID 1047); format: functional;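 note: HCT116 colon tumor cells with PTEN knocked out; cells exposed to compound for 60 hours before readout; potency for loss of cell viability measured by luminescence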
[6] = growth suppression of beta-catenin-knockout colon cells, dose response, cell-based, HCT116, human colon tumor (AID 1045); format: functional;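 note: HCT116 colon tumor cells with beta catenin knocked out; cells exposed to compound for 60 hours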
[7] = target: T1, Probable nicotinate-nucleotide adenylyltransferase (Staphylococcus aureus (strain N315), UniProt P65502); format: functional, Staphylococcus aureus subsp. aureus N315;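 for IC50 Mean: confirmatory dose-response retesting of NadD inhibitor hits first found in an ultra-high-throughput screen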
T1 sequence (P65502 whole entry): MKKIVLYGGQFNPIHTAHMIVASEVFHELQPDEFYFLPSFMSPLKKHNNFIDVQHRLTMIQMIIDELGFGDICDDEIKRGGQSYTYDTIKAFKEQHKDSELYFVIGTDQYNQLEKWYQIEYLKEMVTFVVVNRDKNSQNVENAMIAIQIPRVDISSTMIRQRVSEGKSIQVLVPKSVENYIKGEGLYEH

[8] = target: T1, Probable nicotinate-nucleotide adenylyltransferase; format: functional, Staphylococcus aureus subsp. aureus N315; settings: read-out: IC50_Mean
[9] = Luminescence Cell-Based Dose Retest to Confirm Inhibitors of Cancer Stem Cells. [Related pubchem assays (depositor defined):AID2717, AID2721]; format: functional; settings: Homo sapiens
[10] = target: T2, Histone-lysine N-methyltransferase NSD2 (Homo sapiens, UniProt O96028); format: biochemical
T2 sequence (O96028 whole entry): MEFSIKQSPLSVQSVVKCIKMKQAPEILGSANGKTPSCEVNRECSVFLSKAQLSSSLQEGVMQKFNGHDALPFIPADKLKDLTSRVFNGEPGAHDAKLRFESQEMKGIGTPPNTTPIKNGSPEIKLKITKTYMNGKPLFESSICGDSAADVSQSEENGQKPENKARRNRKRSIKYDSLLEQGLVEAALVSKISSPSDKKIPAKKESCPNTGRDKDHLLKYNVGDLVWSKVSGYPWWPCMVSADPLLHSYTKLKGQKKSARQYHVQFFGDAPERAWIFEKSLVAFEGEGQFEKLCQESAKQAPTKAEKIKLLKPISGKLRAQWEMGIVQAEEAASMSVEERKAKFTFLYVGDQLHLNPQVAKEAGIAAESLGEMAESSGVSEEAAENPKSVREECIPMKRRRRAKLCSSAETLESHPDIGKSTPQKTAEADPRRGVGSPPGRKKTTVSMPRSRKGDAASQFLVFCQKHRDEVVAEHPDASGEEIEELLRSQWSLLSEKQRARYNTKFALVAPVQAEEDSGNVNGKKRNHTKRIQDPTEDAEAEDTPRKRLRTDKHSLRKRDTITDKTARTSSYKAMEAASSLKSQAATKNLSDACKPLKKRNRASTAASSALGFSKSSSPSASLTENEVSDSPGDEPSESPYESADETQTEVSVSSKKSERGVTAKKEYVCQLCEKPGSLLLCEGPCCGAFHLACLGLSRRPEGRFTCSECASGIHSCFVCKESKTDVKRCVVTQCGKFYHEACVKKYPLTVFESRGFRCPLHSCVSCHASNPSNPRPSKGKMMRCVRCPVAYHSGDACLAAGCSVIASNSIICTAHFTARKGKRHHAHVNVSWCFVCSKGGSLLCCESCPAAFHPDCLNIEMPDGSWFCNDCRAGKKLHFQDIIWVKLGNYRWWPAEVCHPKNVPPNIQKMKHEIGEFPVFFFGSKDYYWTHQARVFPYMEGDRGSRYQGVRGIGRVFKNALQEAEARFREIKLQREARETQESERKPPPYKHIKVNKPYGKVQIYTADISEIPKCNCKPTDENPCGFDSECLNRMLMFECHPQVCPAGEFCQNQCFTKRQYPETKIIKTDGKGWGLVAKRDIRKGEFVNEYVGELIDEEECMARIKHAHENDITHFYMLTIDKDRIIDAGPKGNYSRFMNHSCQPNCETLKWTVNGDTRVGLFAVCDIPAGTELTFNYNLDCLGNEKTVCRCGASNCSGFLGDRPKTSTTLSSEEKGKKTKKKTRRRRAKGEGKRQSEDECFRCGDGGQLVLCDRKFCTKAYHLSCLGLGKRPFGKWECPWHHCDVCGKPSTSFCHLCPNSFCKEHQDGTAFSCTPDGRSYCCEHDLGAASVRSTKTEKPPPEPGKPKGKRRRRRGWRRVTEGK

[11] = target: T3, Replicative DNA helicase DnaB (Mycobacterium tuberculosis, UniProt P9WMR3); assay: DnaB intein splicing inhibitors, dose response, biochemical, cell-free fluorescence (AID 449749); format: functional
T3 sequence (P9WMR3 whole entry): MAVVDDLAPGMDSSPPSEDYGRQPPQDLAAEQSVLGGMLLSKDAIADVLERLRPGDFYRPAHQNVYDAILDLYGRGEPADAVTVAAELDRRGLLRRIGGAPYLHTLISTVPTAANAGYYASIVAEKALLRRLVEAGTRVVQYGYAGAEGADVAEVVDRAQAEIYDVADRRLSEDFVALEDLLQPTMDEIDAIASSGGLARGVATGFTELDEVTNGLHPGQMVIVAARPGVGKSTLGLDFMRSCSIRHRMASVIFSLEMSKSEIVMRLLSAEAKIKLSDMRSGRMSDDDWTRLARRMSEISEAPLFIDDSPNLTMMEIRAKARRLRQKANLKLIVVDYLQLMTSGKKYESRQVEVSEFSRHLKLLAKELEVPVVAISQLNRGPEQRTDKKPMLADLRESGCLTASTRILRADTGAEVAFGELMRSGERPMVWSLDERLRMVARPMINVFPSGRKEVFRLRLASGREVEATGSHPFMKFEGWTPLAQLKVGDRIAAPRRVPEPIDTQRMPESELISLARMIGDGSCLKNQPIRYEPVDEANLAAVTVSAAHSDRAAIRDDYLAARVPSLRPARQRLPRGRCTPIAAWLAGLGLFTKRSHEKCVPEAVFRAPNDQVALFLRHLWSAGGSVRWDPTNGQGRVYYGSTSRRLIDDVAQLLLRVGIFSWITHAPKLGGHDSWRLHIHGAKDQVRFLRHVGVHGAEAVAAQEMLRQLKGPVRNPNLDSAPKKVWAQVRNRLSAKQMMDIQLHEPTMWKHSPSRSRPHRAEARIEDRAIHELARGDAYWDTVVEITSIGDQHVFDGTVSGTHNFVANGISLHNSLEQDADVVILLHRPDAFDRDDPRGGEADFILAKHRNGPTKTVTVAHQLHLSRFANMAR

[12] = target: G-protein coupled receptor 35 (Homo sapiens, UniProt Q9HC97); assay: GPR35 antagonists blocking zaprinast-driven arrestin recruitment, primary screen, imaging, U2OS, beta-arrestin-GFP, zaprinast agonist (AID 2058); format: functional;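 note: antagonist potency meaning inhibition of agonist-induced arrestin redistribution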
G-protein coupled receptor 35, sequence (Q9HC97 whole entry): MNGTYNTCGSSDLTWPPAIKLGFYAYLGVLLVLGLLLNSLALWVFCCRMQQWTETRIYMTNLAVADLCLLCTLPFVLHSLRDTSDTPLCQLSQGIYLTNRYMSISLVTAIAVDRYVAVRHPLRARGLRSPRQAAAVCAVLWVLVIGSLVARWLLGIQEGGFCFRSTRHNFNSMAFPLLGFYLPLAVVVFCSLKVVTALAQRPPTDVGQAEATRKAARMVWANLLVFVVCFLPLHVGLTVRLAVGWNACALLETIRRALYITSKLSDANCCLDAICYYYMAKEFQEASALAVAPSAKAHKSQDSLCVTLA

Protein RecA = target: T4, Protein RecA (Mycobacterium tuberculosis, UniProt P9WHJ3); assay: Fluorescence Cell-Free Homogeneous Dose Retest to Identify Inhibitors of RecA-Intein Splicing Activity. [Related pubchem assays (depositor defined):AID2097, AID2223, AID489010, AID492950]; format: functional
T4 sequence (P9WHJ3 whole entry): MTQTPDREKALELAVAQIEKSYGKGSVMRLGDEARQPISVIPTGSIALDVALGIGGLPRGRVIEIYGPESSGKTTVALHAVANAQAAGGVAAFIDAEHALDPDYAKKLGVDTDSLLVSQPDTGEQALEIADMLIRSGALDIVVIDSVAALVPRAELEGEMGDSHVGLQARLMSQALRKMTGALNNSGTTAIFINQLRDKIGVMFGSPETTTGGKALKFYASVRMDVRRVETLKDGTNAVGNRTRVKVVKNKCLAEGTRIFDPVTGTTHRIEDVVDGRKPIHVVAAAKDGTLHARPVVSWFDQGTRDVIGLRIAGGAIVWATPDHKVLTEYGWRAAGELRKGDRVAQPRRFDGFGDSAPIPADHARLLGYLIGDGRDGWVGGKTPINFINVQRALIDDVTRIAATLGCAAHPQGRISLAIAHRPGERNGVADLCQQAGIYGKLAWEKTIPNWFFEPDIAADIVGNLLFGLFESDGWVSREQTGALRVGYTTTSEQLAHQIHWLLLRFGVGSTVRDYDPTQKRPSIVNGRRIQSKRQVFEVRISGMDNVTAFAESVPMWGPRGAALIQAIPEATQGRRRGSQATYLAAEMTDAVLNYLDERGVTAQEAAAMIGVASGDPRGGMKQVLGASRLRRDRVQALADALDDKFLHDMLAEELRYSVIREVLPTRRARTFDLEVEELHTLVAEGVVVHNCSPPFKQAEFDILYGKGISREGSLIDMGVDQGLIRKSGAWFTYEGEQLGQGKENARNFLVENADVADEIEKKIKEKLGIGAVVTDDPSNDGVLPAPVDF

[13] = LGR2 antagonists, dose response, cell-based, HEK293, CRE-luciferase reporter, cherry pick, set 2 (AID 743343); format: functional;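 note: transfected cells were stimulated with diluted bursicon conditioned medium after compound addition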
Protein skinhead-1 = target: T5, Protein skinhead-1 (Caenorhabditis elegans, UniProt P34707); format: functional
T5 sequence (P34707 whole entry): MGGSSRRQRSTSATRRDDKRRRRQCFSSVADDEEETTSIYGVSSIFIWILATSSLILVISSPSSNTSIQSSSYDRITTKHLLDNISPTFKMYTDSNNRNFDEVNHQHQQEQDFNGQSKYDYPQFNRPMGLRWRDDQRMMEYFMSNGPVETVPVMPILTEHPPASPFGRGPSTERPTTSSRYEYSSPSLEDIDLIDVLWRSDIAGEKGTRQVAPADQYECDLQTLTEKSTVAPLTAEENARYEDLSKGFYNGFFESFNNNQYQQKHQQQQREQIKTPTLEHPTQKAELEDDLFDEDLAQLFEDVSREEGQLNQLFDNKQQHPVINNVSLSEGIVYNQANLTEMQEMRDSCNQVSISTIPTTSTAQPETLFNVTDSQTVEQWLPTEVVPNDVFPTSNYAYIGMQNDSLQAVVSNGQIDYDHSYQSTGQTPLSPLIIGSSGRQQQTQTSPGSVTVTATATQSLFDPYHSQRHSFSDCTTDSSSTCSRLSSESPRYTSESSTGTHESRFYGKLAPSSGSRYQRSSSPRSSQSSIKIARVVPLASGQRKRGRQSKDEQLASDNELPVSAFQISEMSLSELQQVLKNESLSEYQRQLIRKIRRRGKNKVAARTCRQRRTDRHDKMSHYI

[14] = HEK293 cell cytotoxicity, dose response, cytotoxicity control, plate reader, cherry-picked samples (AID 743446); format: functional, cell-based
[15] = MC4R antagonists, dose response, counter-screen for LGR2 antagonist project, cell-based, plate reader, cherry pick (AID 743444); format: functional;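 note: transfected HEK 293 cells stimulated with alpha-MSH peptide; potency of inhibitors of the alpha-MSH evoked signal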
[16] = HepG2 cell cytotoxicity, dose response, cytotoxicity control, plate reader, cherry-pick, antagonist series (AID 743416); format: functional, cell-based
[17] = A549 cell cytotoxicity, dose response, cytotoxicity control, plate reader, cherry-pick, antagonist series (AID 743412); format: functional, cell-based

Which AC50 [1] does the source give for `C[C@@H]1CN([C@H](C)CO)S(=O)(=O)c2ccc(-c3ccc(C(=O)N(C)C)cc3)cc2O[C@@H]1CN(C)C(=O)C1CCC1` here?
Its AC50 is 0.493 µM (active).

For `C[C@H]1CN([C@@H](C)CO)C(=O)Cc2cc(NC(=O)NC3CCCCC3)ccc2O[C@H]1CN(C)Cc1ccc(-c2ccccc2)cc1`, which AC50 [2] is on record?
Its AC50 is 54.3 µM (active).

What about the AC50 (Paired box protein Pax-8) of the same molecule?
The AC50 was 5.8 µM (active).

And the AC50 [3]?
Its AC50 is > 70 µM (inactive).

What about the AC50 [4] of the same molecule?
The AC50 was 2.67 µM (active).

For `NS(=O)(=O)c1ccc(NC(=O)COC(=O)c2c3c(nc4ccccc24)/C(=C\c2ccc4c(c2)OCO4)CCC3)cc1`, which EC50 [5] is on record?
Its EC50 is 17.5 µM (active).

What about the EC50 [6] of the same molecule?
Its EC50 is 18.3 µM (active).

What about the IC50 [7] of the same molecule?
The IC50 was 11.9 µM (active).

What about the IC50 [8] of the same molecule?
Its IC50 is 21.1 µM (active).

And the AC50 [9]?
Its AC50 is 3.72 µM (active).

With `CN(C[C@H]1N[C@@H](CO)[C@@H]1c1ccc(C2=CCCC2)cc1)C(=O)c1ccccn1` as the molecule, how does the AC50 [1] read?
Its AC50 is 2.46 µM (active).

Which AC50 [10] does the source give for `O=C(Nc1ccccn1)c1ccc2c(=O)n3c(nc2c1)CCCCC3` here?
The AC50 was 7.7 µM (active).

For `O=c1c(Cl)c(Cl)cnn1Cc1ccccc1Cl`, which AC50 [11] is on record?
Its AC50 is 15.5 µM (active).

And the IC50 [12]?
The IC50 was 2.16 µM (active).

And the EC50 (Protein RecA)?
The EC50 was 7.78 µM (active).

For `CN(C)CC(O)c1ccc(C=Cc2ccc(Cl)cc2)cc1` (stereo not drawn), which AC50 [13] is on record?
Its AC50 is 14.6 µM (active).

What about the IC50 (Protein skinhead-1) of the same molecule?
Its IC50 is 58.1 µM (inactive).

What about the AC50 [14] of the same molecule?
Its AC50 is 14.3 µM (active).

And the AC50 [15]?
Its AC50 is 12.7 µM (active).

What about the AC50 [16] of the same molecule?
Its AC50 is 8.24 µM (active).

And the AC50 [17]?
Its AC50 is 8.82 µM (active).

For `Cc1cccc(C)c1-n1nnnc1C(CCc1ccccc1)N1CCC(n2c(O)nc3ccccc32)CC1` (stereo not drawn), which AC50 [13] is on record?
Its AC50 is 9.92 µM (active).

And the AC50 [14]?
Its AC50 is 6.12 µM (active).

What about the AC50 [15] of the same molecule?
The AC50 was 8.26 µM (active).

What about the AC50 [16] of the same molecule?
Its AC50 is 2.71 µM (active).

And the AC50 [17]?
Its AC50 is 16.6 µM (active).

For `C[C@H](CO)N1C[C@H](C)[C@@H](CN(C)Cc2ccc(Cl)c(Cl)c2)Oc2ccc(NC(=O)Nc3ccc(F)cc3)cc2CC1=O`, which AC50 (Paired box protein Pax-8) is on record?
Its AC50 is 13.2 µM (active).

What about the AC50 [3] of the same molecule?
The AC50 was 54.4 µM (active).
